For one molecule, IC50 results are on record in BindingDB's records for patent US12180185 (Hk Inno.N, 2024).

The target in this assay is Tyrosine-protein kinase JAK1 (Homo sapiens, UniProt P23458). As to the kind of experiment: ADP-Glo Kinase assay. The protocol:
An inhibitory effect of the inventive compound on JAK was identified as follows.A control material and a test material were prepared through dilution at each concentration by using DMSO. At the same time, ATP (250 uM) and JAK's substrate (JAK1, IRS-1tide 40 ng/mL) were prepared through dilution in kinase buffer (40 mM Tris-HCl pH 7.5, 20 mM MgCl2, 0.5 mg/mL BSA, 50 uM DTT).A test drug for each concentration, the substrate, the ATP and JAK enzymes were mixed in an eppendorf tube, and then subjected to reaction in an incubator at 30° C. for 40 minutes.ADP-GloFigure US12180185-20241231-P00001 reagent included in ADP-Glo™ Kinase Enzyme System (Promega, USA, V9571) was added to each eppendorf tube, and then subjected to reaction in the incubator at 30° C. for 40 minutes.A kinase detection reagent included in the ADP-Glo™ Kinase Enzyme System was inserted into the eppendorf tube, after which luminescence was measured by using Wallac Victor 2TM with an integration time set to 1 second, such that an inhibitory capacity of the test material on JAKs phosphorylation was analyzed. A concentration of the compound, at which JAK enzyme activity inhibition occurs 50% compared to the control group, was determined as IC50 (nM) of an inhibitor.
Background: In ADP-Glo the light output rises with the ADP produced.

Chain of Tyrosine-protein kinase JAK1 (P23458 whole entry): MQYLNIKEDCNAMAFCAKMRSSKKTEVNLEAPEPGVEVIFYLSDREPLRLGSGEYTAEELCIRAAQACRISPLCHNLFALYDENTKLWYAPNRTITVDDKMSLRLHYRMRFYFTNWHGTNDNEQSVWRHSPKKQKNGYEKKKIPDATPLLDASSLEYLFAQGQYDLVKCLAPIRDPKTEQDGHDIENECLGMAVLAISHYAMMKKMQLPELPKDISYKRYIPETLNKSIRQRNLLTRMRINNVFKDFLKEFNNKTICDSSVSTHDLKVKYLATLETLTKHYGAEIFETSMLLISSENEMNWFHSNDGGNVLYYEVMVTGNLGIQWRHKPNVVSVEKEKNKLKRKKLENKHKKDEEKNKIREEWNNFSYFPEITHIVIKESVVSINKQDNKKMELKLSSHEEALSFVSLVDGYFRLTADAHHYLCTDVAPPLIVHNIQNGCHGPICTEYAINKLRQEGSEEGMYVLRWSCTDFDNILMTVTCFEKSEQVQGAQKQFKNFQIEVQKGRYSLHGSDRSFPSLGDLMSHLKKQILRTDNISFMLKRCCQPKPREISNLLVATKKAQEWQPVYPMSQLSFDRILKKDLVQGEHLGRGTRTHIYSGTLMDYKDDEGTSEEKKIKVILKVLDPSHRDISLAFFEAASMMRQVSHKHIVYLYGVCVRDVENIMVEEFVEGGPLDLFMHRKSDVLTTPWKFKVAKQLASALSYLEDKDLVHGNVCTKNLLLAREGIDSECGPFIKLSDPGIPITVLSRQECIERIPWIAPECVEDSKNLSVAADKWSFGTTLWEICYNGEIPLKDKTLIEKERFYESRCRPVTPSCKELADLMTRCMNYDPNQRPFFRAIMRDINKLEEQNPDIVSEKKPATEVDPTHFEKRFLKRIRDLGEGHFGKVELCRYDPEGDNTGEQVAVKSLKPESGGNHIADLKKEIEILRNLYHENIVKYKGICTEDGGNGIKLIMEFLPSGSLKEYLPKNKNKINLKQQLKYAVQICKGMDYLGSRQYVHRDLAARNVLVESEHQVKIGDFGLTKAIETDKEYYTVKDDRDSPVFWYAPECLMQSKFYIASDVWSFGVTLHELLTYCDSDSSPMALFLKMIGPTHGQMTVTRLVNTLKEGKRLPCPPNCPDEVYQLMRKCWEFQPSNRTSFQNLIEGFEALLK

On to `CC(C)=C(C#N)C(=O)Nc1cccc2c(-c3ccnc(NC(=O)C4CC4)c3)n[nH]c12` [US12180185, Example 63], for which the IC50 was greater than 1000 nM.

For orientation: IC50 means the concentration that gives 50% inhibition. A low value points to greater potency in that assay.
